Assay results as given in PubChem BioAssay AID256 (DTP/NCI, 2004).
Values joined by “and” are separate entries in the source; they are usually repeats but may differ in a detail not shown here. Equal values may be shown once. Inconclusive results and toxic doses are left out. Rule for the calls: active = survival T/C of 150% or more; inactive = T/C below 125% in these data.

Tested on: CD2F1 mice, L1210 leukemia ip, survival T/C
Assay: NCI In Vivo Anticancer Drug Screen. Data for tumor model L1210 Leukemia (intraperitoneal) in CD2F1 (CDF1) mice
Details: higher = longer survival
Summary of the method: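 Antitumor effect is scored in animals hosting a serially transplanted tumor. Values compare compound-dosed animals against vehicle-only controls as a simple quotient.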

[1] = endpoint: mean survival time, dose: 100.0 mg/kg/injection, schedule: Q01DX009 (ip), vehicle: saline with Tween-80
[2] = endpoint: mean survival time, dose: 100.0 mg/kg/injection, schedule: Q04DX003 (ip), vehicle: saline with Tween-80
[3] = endpoint: mean survival time, dose: 200.0 mg/kg/injection, schedule: Q01DX009 (ip), vehicle: saline with Tween-80
[4] = endpoint: mean survival time, dose: 200.0 mg/kg/injection, schedule: Q04DX003 (ip), vehicle: saline with Tween-80
[5] = endpoint: mean survival time, dose: 400.0 mg/kg/injection, schedule: Q01DX009 (ip), vehicle: saline with Tween-80
[6] = endpoint: mean survival time, dose: 400.0 mg/kg/injection, schedule: Q04DX003 (ip), vehicle: saline with Tween-80
[7] = endpoint: mean survival time, dose: 12.5 mg/kg/injection, schedule: Q01DX009 (ip), vehicle: saline with Tween-80
[8] = endpoint: mean survival time, dose: 25.0 mg/kg/injection, schedule: Q01DX009 (ip), vehicle: saline with Tween-80
[9] = endpoint: mean survival time, dose: 100.0 mg/kg/injection, schedule: Q01DX001 (ip), vehicle: saline
[10] = endpoint: mean survival time, dose: 200.0 mg/kg/injection, schedule: Q01DX001 (ip), vehicle: saline

Measured: T/C

Nc1ccccc1Cl
inactive: endpoint: mean survival time, dose: 31.25 mg/kg/injection, schedule: Q01DX009 (ip), vehicle: saline with Tween-80 95 % of control | endpoint: mean survival time, dose: 31.25 mg/kg/injection, schedule: Q04DX003 (ip), vehicle: saline with Tween-80 97 % of control | endpoint: mean survival time, dose: 62.5 mg/kg/injection, schedule: Q01DX009 (ip), vehicle: saline with Tween-80 91 % of control | endpoint: mean survival time, dose: 62.5 mg/kg/injection, schedule: Q04DX003 (ip), vehicle: saline with Tween-80 101 % of control | endpoint: mean survival time, dose: 125.0 mg/kg/injection, schedule: Q01DX009 (ip), vehicle: saline with Tween-80 93 % of control | endpoint: mean survival time, dose: 125.0 mg/kg/injection, schedule: Q04DX003 (ip), vehicle: saline with Tween-80 101 % of control

O/N=C1/CCCc2ccccc21
inactive: [1] 98 % of control | [2] 100 % of control | [3] 101 % of control | [4] 97 % of control | [5] 104 % of control | [6] 100 % of control

Oc1ccc2ccccc2c1NC(=S)Nc1ccccc1
inactive: endpoint: mean survival time, dose: 100.0 mg/kg/injection, schedule: Q04DX002 (ip), vehicle: Klucel (hydroxypropylcellulose) (HPC) 97 % of control | endpoint: mean survival time, dose: 200.0 mg/kg/injection, schedule: Q04DX002 (ip), vehicle: Klucel (hydroxypropylcellulose) (HPC) 93 % of control | endpoint: mean survival time, dose: 400.0 mg/kg/injection, schedule: Q04DX002 (ip), vehicle: Klucel (hydroxypropylcellulose) (HPC) 93 % of control

CC1(C)c2c3ccccc3cc3cccc(c23)[S+]1c1ccccc1 (configuration not stated)
inactive: endpoint: mean survival time, dose: 5.0 mg/kg/injection, schedule: Q01DX001 (ip), vehicle: saline with Tween-80 105 % of control | endpoint: mean survival time, dose: 10.0 mg/kg/injection, schedule: Q01DX001 (ip), vehicle: saline with Tween-80 106 % of control | endpoint: mean survival time, dose: 20.0 mg/kg/injection, schedule: Q01DX001 (ip), vehicle: saline with Tween-80 111 % of control

CN(C)CCCN=Cc1ccccc1O.CN(C)CCCN=Cc1ccccc1O.[Ni+2]
inactive: endpoint: mean survival time, dose: 6.25 mg/kg/injection, schedule: Q01DX009 (ip), vehicle: saline with Tween-80 100 % of control | [7] 101 % of control | [8] 89 % of control

N#CC(C#N)=C1Cc2ccccc2C1
inactive: endpoint: mean survival time, dose: 12.5 mg/kg/injection, schedule: Q04DX003 (ip), vehicle: saline with Tween-80 93 % of control | endpoint: mean survival time, dose: 25.0 mg/kg/injection, schedule: Q04DX003 (ip), vehicle: saline with Tween-80 100 % of control | endpoint: mean survival time, dose: 50.0 mg/kg/injection, schedule: Q04DX003 (ip), vehicle: saline with Tween-80 94 % of control

CN(C)CC1CN(C)CC(CN(C)C)C1(O)C(C(=O)N(C)C)c1ccccc1 (configuration not stated)
inactive: endpoint: mean survival time, dose: 75.0 mg/kg/injection, schedule: Q01DX001 (ip), vehicle: other 98 % of control | endpoint: mean survival time, dose: 150.0 mg/kg/injection, schedule: Q01DX001 (ip), vehicle: other 100 % of control | endpoint: mean survival time, dose: 300.0 mg/kg/injection, schedule: Q01DX001 (ip), vehicle: other 98 % of control

NC(=O)C1=C(CCCCl)c2ccccc2C1=O
inactive: endpoint: mean survival time, dose: 50.0 mg/kg/injection, schedule: Q04DX003 (ip), vehicle: saline 112 % of control | [9] 102 % of control | endpoint: mean survival time, dose: 100.0 mg/kg/injection, schedule: Q04DX003 (ip), vehicle: saline 115 % of control | [10] 95 % of control | endpoint: mean survival time, dose: 200.0 mg/kg/injection, schedule: Q04DX003 (ip), vehicle: saline 90 % of control

CC(=O)C1=C(C)NC(C)=C(C(C)=O)C1c1ccccc1
inactive: [1] 103 % of control | [3] 107 % of control | [5] 107 % of control

CCOC(=O)c1[nH]c(C2OC(CO)C(O)C2O)nc1O (configuration not stated)
inactive: endpoint: median survival time, dose: 49.9 mg/kg/injection, schedule: Q01DX005 (ip), vehicle: saline 96 % of control | endpoint: median survival time, dose: 99.7 mg/kg/injection, schedule: Q01DX005 (ip), vehicle: saline 98 % of control | endpoint: median survival time, dose: 199.3 mg/kg/injection, schedule: Q01DX005 (ip), vehicle: saline 96 % of control

CO[C@H](/C(C)=C/C=C/C(C)=C/c1coc(C)n1)[C@H](C)[C@H]1C[C@@H](O)[C@@]2(C)O[C@H]2/C=C/[C@@H](C)[C@@H]2C[C@@H](CC(=O)O2)C[C@H]2O[C@@H]2C(=O)O1
inactive: endpoint: median survival time, dose: 0.5 mg/kg/injection, schedule: Q01DX009 (ip), vehicle: Klucel (hydroxypropylcellulose) (HPC) 112 % of control | endpoint: median survival time, dose: 20.0 micrograms/kg/injection, schedule: Q01DX009 (ip), vehicle: Klucel (hydroxypropylcellulose) (HPC) 114 % of control | endpoint: median survival time, dose: 40.0 micrograms/kg/injection, schedule: Q01DX009 (ip), vehicle: Klucel (hydroxypropylcellulose) (HPC) 123 % of control and 104 % of control | endpoint: median survival time, dose: 80.0 micrograms/kg/injection, schedule: Q01DX009 (ip), vehicle: Klucel (hydroxypropylcellulose) (HPC) 116 % of control | endpoint: median survival time, dose: 160.0 micrograms/kg/injection, schedule: Q01DX009 (ip), vehicle: Klucel (hydroxypropylcellulose) (HPC) 114 % of control

O=C(c1ccccc1)c1ccc2c(c1)-c1ccccc1-2
inactive: [1] 94 % of control | [2] 100 % of control | [3] 94 % of control | [4] 93 % of control | [5] 93 % of control | [6] 95 % of control

CO[C@@]12[C@@H]3N[C@@H]3CN1C1=C(C(=O)C(NCCN3CCOCC3)=C(C)C1=O)[C@@H]2COC(N)=O
inactive: endpoint: mean survival time, dose: 1.5 mg/kg/injection, schedule: Q01DX001 (ip), vehicle: water 100 % of control | endpoint: mean survival time, dose: 3.0 mg/kg/injection, schedule: Q01DX001 (ip), vehicle: water 101 % of control | endpoint: mean survival time, dose: 6.0 mg/kg/injection, schedule: Q01DX001 (ip), vehicle: water 105 % of control | endpoint: mean survival time, dose: 12.0 mg/kg/injection, schedule: Q01DX001 (ip), vehicle: water 106 % of control | endpoint: mean survival time, dose: 24.0 mg/kg/injection, schedule: Q01DX001 (ip), vehicle: water 103 % of control

CC(C)OC(=O)Oc1cccs1
inactive: [7] 102 % of control | endpoint: mean survival time, dose: 12.5 mg/kg/injection, schedule: Q04DX003 (ip), vehicle: saline sonified 103 % of control | [8] 96 % of control | endpoint: mean survival time, dose: 25.0 mg/kg/injection, schedule: Q04DX003 (ip), vehicle: saline sonified 97 % of control | endpoint: mean survival time, dose: 50.0 mg/kg/injection, schedule: Q01DX009 (ip), vehicle: saline with Tween-80 104 % of control | endpoint: mean survival time, dose: 50.0 mg/kg/injection, schedule: Q04DX003 (ip), vehicle: saline sonified 101 % of control

O=C(C(Oc1ccc(Cl)cc1)Oc1ccc(Cl)cc1)N(O)c1ccccc1OCc1ccccc1
inactive: [2] 102 % of control | [4] 96 % of control | [6] 94 % of control

C#CCOCCCC(=C)C
inactive: endpoint: mean survival time, dose: 100.0 mg/kg/injection, schedule: Q01DX001 (ip), vehicle: acetone 98 % of control

O=S(=O)(c1ccccc1)C(Cl)Cl
inactive: endpoint: mean survival time, dose: 100.0 mg/kg/injection, schedule: Q04DX003 (ip), vehicle: other 95 % of control | endpoint: mean survival time, dose: 200.0 mg/kg/injection, schedule: Q04DX003 (ip), vehicle: other 100 % of control | endpoint: mean survival time, dose: 400.0 mg/kg/injection, schedule: Q04DX003 (ip), vehicle: other 100 % of control

Oc1c(Cl)c(Cl)c(O)c(Cl)c1Cl
inactive: endpoint: mean survival time, dose: 6.25 mg/kg/injection, schedule: Q01DX001 (ip), vehicle: saline with Tween-80 98 % of control | endpoint: mean survival time, dose: 12.5 mg/kg/injection, schedule: Q01DX001 (ip), vehicle: saline with Tween-80 95 % of control | endpoint: mean survival time, dose: 25.0 mg/kg/injection, schedule: Q01DX001 (ip), vehicle: saline with Tween-80 95 % of control

COC(=O)C1CCOC1=O (configuration not stated)
inactive: endpoint: mean survival time, dose: 100.0 mg/kg/injection, schedule: Q04DX002 (ip), vehicle: saline 98 % of control | endpoint: mean survival time, dose: 200.0 mg/kg/injection, schedule: Q04DX002 (ip), vehicle: saline 98 % of control | endpoint: mean survival time, dose: 400.0 mg/kg/injection, schedule: Q04DX002 (ip), vehicle: saline 102 % of control

[Cl][Pt+2][Cl].[NH-]Cc1cccc(F)c1.[NH-]Cc1cccc(F)c1
inactive: endpoint: mean survival time, dose: 12.5 mg/kg/injection, schedule: Q04DX003 (ip), vehicle: distilled water + Tween-80 95 % of control | endpoint: mean survival time, dose: 25.0 mg/kg/injection, schedule: Q04DX003 (ip), vehicle: distilled water + Tween-80 95 % of control | endpoint: mean survival time, dose: 50.0 mg/kg/injection, schedule: Q04DX003 (ip), vehicle: distilled water + Tween-80 95 % of control | endpoint: mean survival time, dose: 100.0 mg/kg/injection, schedule: Q04DX003 (ip), vehicle: distilled water + Tween-80 100 % of control | endpoint: mean survival time, dose: 200.0 mg/kg/injection, schedule: Q04DX003 (ip), vehicle: distilled water + Tween-80 100 % of control

O=C1C=C(Nc2nc(O)cc(=O)[nH]2)c2ccccc2C1=O
inactive: endpoint: mean survival time, dose: 100.0 mg/kg/injection, schedule: Q01DX009 (ip), vehicle: Klucel (hydroxypropylcellulose) (HPC) 97 % of control

Cc1nc(/N=C(/N)N(C)C)[nH]c(=O)c1C
inactive: [9] 97 % of control | [10] 103 % of control | endpoint: mean survival time, dose: 400.0 mg/kg/injection, schedule: Q01DX001 (ip), vehicle: saline 109 % of control
